Measured values reported in patent US20110257035A1, “IDENTIFICATION OF SIGNATURE GENES ASSOCIATED WITH HEPATOCELLULAR CARCINOMA” (Bayer Healthcare LLC, priority 2008, published 2011).
“Also recorded” adds a separate entry of the source.

Columns and labels:
Type in all cases: in vivo, human
plasma HGF = experiment: Plasma HGF ELISA, baseline vs C3D1, HCC patients
plasma bFGF = experiment: Plasma bFGF level, baseline vs C3D1, HCC patients
plasma EGF = experiment: Plasma EGF level, baseline vs C3D1, HCC patients
plasma IGF-2 = experiment: Plasma IGF-2 level, baseline vs C3D1, HCC patients
plasma c-KIT (s-c-Kit) = experiment: Plasma c-KIT ELISA, baseline vs cycle 3 day 1 (C3D1), HCC patients
Procedure: Plasma samples were obtained from patients at the time of screening, C3D1, and at the end of treatment visit.
All six assays were sandwich immunoassays obtained from commercial sources. All assays were performed according to the manufacturers' protocols, as summarized below. All samples were assayed in duplicate and the average value was used for correlative analysis.
ELISA kits for VEGF (cat #DVE00), s-VEGFR-2 (cat #DVR200), HGF (cat #DHG00), and c-KIT (cat #DSCR00) were obtained from R&D Systems.
A monoclonal capture antibody specific to the target protein was provided pre-coated in microplate wells. Appropriately diluted samples and standards were pipetted into the wells, allowing capture of the target protein by the immobilized antibodies. Unbound sample was washed away, and a horseradish peroxidase-conjugated antibody also specific for the target protein was added to the wells. Wells were washed again, and a substrate solution was added to each well. The colored reaction product was measured spectrophotometrically and was translated to the quantity (pg/mL or ng/mL) of biomarker protein in the sample by use of a simultaneously generated standard curve.

[1] = tested on: hepatocellular carcinoma (HCC); experiment: Overall survival / time to progression in placebo-controlled HCC trial (SHARP), Cox multivariate analysis
Text: Overall survival (OS) is defined as the time from randomization to death due to any cause. Overall survival (OS) of subjects alive at the time of analysis will be censored at their last date of follow-up.
Time to progression (TTP) is defined as the time from randomization to disease progression (radiological only). Patients without tumor progression at the time of analysis will be censored at their last date of tumor evaluation.

plasma VEGF = experiment: Plasma VEGF ELISA, baseline vs C3D1, HCC patients
plasma Ras p21 = experiment: Plasma Ras p21 ELISA, baseline vs C3D1, HCC patients; conditions: for Ras p21 Δ from BL (e) / mean change in sorafenib arm: C3D1, mean of per-subject absolute change, p vs placebo 0.046
Procedure: ELISA kits for Ras p21 (cat #06490009) were from Oncogene Science Biomarker Group, part of Siemens Diagnostics, Cambridge, Mass. This assay detects all forms of circulating Ras p21 (H-Ras, N-Ras, and […]).
After washing, a streptavidin-horseradish peroxidase conjugate was added.

plasma Ang2 = experiment: Plasma Ang2 level, baseline vs C3D1, HCC patients
[2] = plasma level, in response to sorafenib treatment
[3] = sorafenib arm, C3D1, mean of per-subject absolute change, p vs placebo <0.0001
[4] = sorafenib-treated HCC patients, C3D1 vs baseline

CNC(=O)c1cc(Oc2ccc(NC(=O)Nc3ccc(Cl)c(C(F)(F)F)c3)cc2)ccn1 [Sorafenib]
median absolute change of plasma HGF levels (plasma HGF; intra-patient sorafenib-associated C3D1 change compared to baseline): -294.02 pg/mL | HGF Mean change in sorafenib arm (plasma HGF; [2]): −7.4% | HGF Δ from BL (e) (plasma HGF; [3]): -285.0 pg/mL | HGF Mean (d) (plasma HGF; sorafenib arm, C3D1, baseline mean 2630.0): 2220.3 pg/mL | Direction of change of plasma HGF in response to sorafenib (plasma HGF; [4]): attenuated; also recorded: decrease | bFGF Δ from BL (e) (plasma bFGF; sorafenib arm, C3D1, mean of per-subject absolute change, p vs placebo 0.196): 2.5 pg/mL | Direction of change of plasma bFGF in sorafenib (plasma bFGF; [4]): None | EGF Δ from BL (e) (plasma EGF; sorafenib arm, C3D1, mean of per-subject absolute change, p vs placebo 0.240): -8.9 pg/mL | EGF Mean (d) (plasma EGF; sorafenib arm, C3D1, baseline mean 61.8): 53.4 pg/mL | Direction of change of plasma EGF in sorafenib (plasma EGF; [4]): decreases; also recorded: Mixed | IGF-2 Mean change in sorafenib (plasma IGF-2; [2]): −11.3% | IGF-2 Δ from BL (e) (plasma IGF-2; sorafenib arm, C3D1, mean of per-subject absolute change, p vs placebo 0.145): -129.4 ng/mL | IGF-2 Mean (d) (plasma IGF-2; sorafenib arm, C3D1, baseline mean 938.8): 847.9 ng/mL | Direction of change of plasma IGF-2 in sorafenib (plasma IGF-2; [4]): decreases | c-KIT Mean change in sorafenib arm (plasma c-KIT (s-c-Kit); [2]): −33.9% | c-KIT Δ from BL (e) (plasma c-KIT (s-c-Kit); [3]): -4.5 ng/mL | c-KIT Mean (d) (plasma c-KIT (s-c-Kit); sorafenib arm, C3D1, baseline mean 12.2): 8.6 ng/mL | Direction of change of plasma c-KIT in response to sorafenib (plasma c-KIT (s-c-Kit); [4]): attenuated; also recorded: decrease | time to progression and/or overall survival compared to placebo treated subjects ([1]; HCC patients): increases | Treatment HR for OS ([1]; multivariate analysis of all patients, sorafenib vs placebo, P-value 0.043): 0.779 | VEGF Mean change in sorafenib arm (plasma VEGF; [2]): +195.7% | VEGF Δ from BL (e) (plasma VEGF; sorafenib arm, C3D1, mean of per-subject absolute change, p vs placebo 0.010): 66.8 pg/mL | VEGF Mean (d) (plasma VEGF; sorafenib arm, C3D1, baseline mean 100.7): 170.1 pg/mL | Direction of change of plasma VEGF in response to sorafenib (plasma VEGF; [4]): elevated; also recorded: increase | Ras p21 Δ from BL (e) / mean change in sorafenib arm (plasma Ras p21; sorafenib arm): -259.8 pg/mL | Ras p21 Δ from BL (e) / mean change in sorafenib arm (plasma Ras p21; sorafenib arm, listed as sorafenib): -259.8 pg/mL | Ras p21 Mean (d) (plasma Ras p21; sorafenib arm, C3D1, baseline mean 2115.7): 1144.7 pg/mL | Direction of change of plasma Ras p21 in response to sorafenib (plasma Ras p21; [4]): attenuated; also recorded: decrease | Ang2 Δ from BL (e) (plasma Ang2; [3]): -293.0 pg/mL | Ang2 Mean (d) (plasma Ang2; sorafenib arm, C3D1, baseline mean 7510.0): 6456.4 pg/mL | Direction of change of plasma Ang2 in sorafenib (plasma Ang2; [4]): attenuated and remain unchanged and does not change significantly and None
